Reference: patent US5866583A, “Substituted 2,4-diaminopyrimidines” (Hoffmann-La Roche Inc., priority 1996, dated 1999)

What was measured:
[1] = target: purified DHFR of the reference strain S. aureus ATCC 25923 (Staphylococcus aureus, UniProt P0A017); experiment: Inhibition of purified DHFR of reference strain S. aureus ATCC 25923; format: biochemical
Source text: (§1) The inhibition of this enzyme was taken as a measurement of the antibacterial activity.

[2] = target: purified DHFR of the multiresistant strain S. aureus 157/4696 (Staphylococcus aureus, UniProt P13955); experiment: Inhibition of purified DHFR of multiresistant strain S. aureus 157/4696; format: biochemical
Source text: as §1

[3] = target: T1, purified DHFR of the opportunistic pathogen P. carinii (Pneumocystis carinii, UniProt P16184); experiment: biochemical; details: IC50 determined by means of a graph
T1 sequence (P16184 1-206): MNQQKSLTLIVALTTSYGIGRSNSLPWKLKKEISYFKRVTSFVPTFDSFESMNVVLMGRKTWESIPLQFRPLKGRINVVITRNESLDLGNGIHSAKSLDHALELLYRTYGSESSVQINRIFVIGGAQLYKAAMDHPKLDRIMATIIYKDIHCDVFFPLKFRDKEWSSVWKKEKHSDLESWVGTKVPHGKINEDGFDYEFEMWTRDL
Source text: as §1

SMILES	IC50 [1] [nM]	IC50 [2] [nM]	IC50 [3] [nM]
COc1cc(Cc2cnc(N)nc2N)cc(/C=C/C(=O)N2CCc3ccccc3[C@@H]2c2ccccn2)c1OC [Example 1, (E)-(R)-3-[5-(2,4-diamino-pyrimidin-5-ylmethyl)-2,3-dimethoxy-phenyl]-1-(1-pyridin-2-yl-3,4-dihydro-1H-isoquinolin-2-yl)-propenone]	5	8	8000
COc1cc(Cc2cnc(N)nc2N)cc(/C=C/C(=O)N2CCc3ccccc3C2c2ccc(C)cc2)c1OC (racemic) [Example 16, (E)-(RS)-3-[5-(2,4-Diamino-pyrimidin-5-ylmethyl)-2,3-dimethoxy-phenyl]-1-[1-(4-methyl-phenyl)-3,4-dihydro-1H-isoquinolin-2-yl]-propenone]	0.2	4.8	330
COc1cc(Cc2cnc(N)nc2N)cc(/C=C/C(=O)N2CCc3ccccc3C2c2ccc(Cl)cn2)c1OC (racemic) [Example 34, (E)-(RS)-1-[1-(5-Chloro-pyridin-2-yl)-3,4-dihydro-1H-isoquinolin-2-yl]-3-[5-(2,4-diamino-pyrimidin-5-ylmethyl)-2,3-dimethoxy-phenyl]-propenone]	2.4	1.7	10000
COc1cc(Cc2cnc(N)nc2N)cc(/C=C/C(=O)N2CCc3ccccc3C2c2ccc(C(N)=O)nc2)c1OC (racemic) [Example 39, (E)-(R,S)-5-[2-[3-[5-(2,4-Diamino-pyrimidin-5-ylmethyl)-2,3-dimethoxy-phenyl]-acryloyl]-1,2,3,4-tetrahydro-isoquinolin-1-yl]-pyridine-2-carboxamide]	1.2	1.8	30000
COc1cc(Cc2cnc(N)nc2N)cc(/C=C/C(=O)N2CCc3ccccc3C2c2ccc(C#N)cc2)c1OC (racemic) [Example 23]	0.5	0.9	10000
COc1cc(Cc2cnc(N)nc2N)cc(/C=C/C(=O)N2CCc3ccccc3C2c2cccs2)c1OC (racemic) [Example 27, (E)-(RS)-3-[5-(2,4-Diamino-pyrimidin-5-ylmethyl)-2,3-dimethoxy-phenyl]-1-(1-thiophen-2-yl-3,4-dihydro-1H-isoquinolin-2-yl)-propenone]	1.6	1.8	3800
COc1cc(Cc2cnc(N)nc2N)cc(/C=C/C(=O)N2CCc3ccccc3C2c2ccc(Cl)nc2)c1OC (racemic) [Example 36, (E)-(RS)-1-[1-(6-Chloro-pyridin-3-yl)-3,4-dihydro-1H-isoquinolin-2-yl]-3-[5-(2,4-diamino-pyrimidin-5-ylmethyl)-2,3-dimethoxy-phenyl]-propenone]	0.8	3	6200
COc1cc(Cc2cnc(N)nc2N)cc(/C=C/C(=O)N2CCc3ccccc3C2c2ccccn2)c1OC (racemic) [Example 3, (E)-(RS)-3-[5-(2,4-Diamino-pyrimidin-5-ylmethyl)-2,3-dimethoxy-phenyl]-1-(1-pyridin-2-yl-3,4-dihydro-1H-isoquinolin-2-yl)-propenone]	9	9.5	17000
COc1cc(Cc2cnc(N)nc2N)cc(/C=C/C(=O)N2CCc3ccccc3C2c2ccc(S(C)(=O)=O)cc2)c1OC (racemic) [Example 40, (E)-(R,S)-3-[5-(2,4-Diamino-pyrimidin-5-ylmethyl)-2,3-dimethoxy-phenyl]-1-[1-(4-methanesulphonyl-phenyl)-3,4-dihydro-1H-isoquinolin-2-yl]-propenone]	0.7	1.2	550
COc1cc(Cc2cnc(N)nc2N)cc(/C=C/C(=O)N2CCc3ccccc3C2c2ccc(C)nc2)c1OC (racemic) [Example 32, (E)-(RS)-3-[5-(2,4-Diamino-pyrimidin-5-ylmethyl)-2,3-dimethoxy-phenyl]-1-[1-(6-methyl-pyridin-3-yl)-3,4-dihydro-1H-isoquinolin-2-yl]-propenone]	1.8	1.3	10000
COc1ccc2c(c1)C(c1ccccn1)N(C(=O)/C=C/c1cc(Cc3cnc(N)nc3N)cc(OC)c1OC)CC2 (racemic) [Example 8, (E)-(RS)-3-[5-(2,4-Diamino-pyrimidin-5-ylmethyl)-2,3-dimethoxy-phenyl]-1-(7-methoxy-1-pyridin-2-yl-3,4-dihydro-1H-isoquinolin-2-yl)-propenone]	5	9	5000
COc1cc(Cc2cnc(N)nc2N)cc(/C=C/C(=O)N2CCc3ccccc3C2c2ccc(O)cc2)c1OC (racemic) [Example 21, (E)-(RS)-3-[5-(2,4-Diamino-pyrimidin-5-ylmethyl)-2,3-dimethoxy-phenyl]-1-[1-(4-hydroxy-phenyl)-3,4-dihydro-1H-isoquinolin-2-yl]-propenone]	5.5	13	380
